Measured values: article PMC8730469 (Bioorganic & Medicinal Chemistry Letters, 2022)

Assays:
SARS-CoV-2 M^pro [1] = target: T1, SARS-CoV-2 M^pro (Severe acute respiratory syndrome coronavirus 2, UniProt P0DTD1); assay type: biochemical
SARS-CoV-2 M^pro [2] = target: T1, SARS-CoV-2 M^pro; assay: fast dilution experiment; details: Fig. S1 and Table S1

| SMILES | inhibitory activity (in words) (SARS-CoV-2 M^pro [1]) | reversibility of inhibition (SARS-CoV-2 M^pro [2]) |
| --- | --- | --- |
| Nc1cccc2c(=O)n(CC(=O)Nc3ccccc3)sc12 [Compound 16b-17] | decreased the activity drastically | – |
| O=C(Cn1sc2c(C(F)(F)F)cccc2c1=O)Nc1ccccc1 [Compound 16b-13] | decreased the activity drastically | – |
| COc1cccc2c(=O)n(CC(=O)Nc3ccccc3)sc12 [Compound 16b-9] | decreased the activity drastically | – |
| O=C(Cn1sc2cccc(F)c2c1=O)Nc1ccccc1 [Compound 16b-3] | – | irreversible inhibitor |
| O=C(O)Cn1sc2cc(F)ccc2c1=O [Compound 13a] | reduced dramatically | – |
| O=c1[nH]sc2cc(F)ccc12 [Compound 3a] | reduced dramatically | – |
